Laboratory results: ChEMBL document CHEMBL4411340, “Tuning Nuclear Receptor Selectivity of Wy14,643 towards Selective Retinoid X Receptor Modulation” (J Med Chem, 2019)
≈ marks a conversion by molar mass, not a printed value.

What was measured:
[1] = Aqueous solubility of the compound in distilled water after 24 hrs by HPLC analysis; format: physicochemical; conditions: for solubility: buffer, 24 h; for solubility at 24 h: distilled water
[2] = Drug uptake in C57BL6/JRj mouse plasma at 10 mg/kg, po administered as single dose and measured after 2 hrs by LS-MS analysis; format: ADME, organism-based; conditions: in vivo
[3] = Ratio of drug uptake in C57BL6/JRj mouse brain to plasma at 10 mg/kg, po administered as single dose and measured after 2 hrs by LS-MS analysis; format: ADME, organism-based
[4] = Drug uptake in C57BL6/JRj mouse liver at 10 mg/kg, po administered as single dose and measured after 2 hrs by LS-MS analysis; format: ADME, organism-based; conditions: in vivo
[5] = Metabolic stability in Sprague-Dawley rat liver microsomes assessed as remaining parent compound level at 10 uM preincubated for 5 mins with NADPH generating system followed by liver microsomes addition and measured after 60 mins by HPLC analysis; format: ADME, Microsome; conditions: read-out: Stability
[6] = Drug uptake in C57BL6/JRj mouse brain at 10 mg/kg, po administered as single dose and measured after 2 hrs by LS-MS analysis; format: ADME, organism-based; conditions: read-out: Drug uptake
[7] = Half life in C57BL6/JRj mouse at 10 mg/kg, po administered as single dose and measured after 2 hrs by LS-MS analysis; format: ADME, organism-based; conditions: in vivo
[8] = Log D, lipophilicity of the compound by HPLC analysis; format: physicochemical

Row | SMILES | solubility [1] | remaining at 1 h, 10 µM [5] [%] | solubility at 24 h [1] [µg/mL] | logD [8] | other results
1 | O=C(O)CSc1nc(Cl)cc(Nc2cccc3c2CCCC3)n1 | Soluble | > 50 |  |  | 
2 | CCCCC(Sc1nc(Cl)cc(Nc2cccc(C)c2C)n1)C(=O)O (stereo not given) |  | > 50 |  |  | 
3 | Cc1cccc(Nc2cc(Cl)nc(SCC(=O)O)n2)c1C [PIRINIXIC ACID] |  | > 50 | 48.6 (≈ 150 µM) | 1.63 | 

Second part, led by results:

Row | solubility [1] | remaining at 1 h, 10 µM [5] [%] | solubility at 24 h [1] [µg/mL] | logD [8] | SMILES | other results
4 | Soluble | > 50 |  |  | CN(c1cc(C(F)(F)F)nc(OCCC(=O)O)n1)c1cccc2c1CCC2 | Drug uptake [2]: Active; BPR [3]: 1.5%; Drug uptake [4]: Active; concentration at 2 h [6]: 275 ng/g; half-life [7]: 4.2 h
5 |  |  | 0.3 (≈ 0.861 µM) | 4.74 | C=C(c1ccc(C(=O)O)cc1)c1cc2c(cc1C)C(C)(C)CCC2(C)C [BEXAROTENE] | 
